Measured values as given in patent US12077503B2, “Substituted cyclic amides and their use as herbicides” (FMC CORPORATION, priority 2015, dated 2024).

Legend:
Type in all cases: in vivo
[1] = system: barnyardgrass (Echinochloa crus-galli); experiment: Test G Pre-Emergence Protocol; details: Echinochloa crus-galli, pre-emergence, 312 h, evaluated after 13 days; for pest or weed control at 15.625 g/ha: 15.625 g ai/ha; for pest or weed control at 15.625 g/ha / pest or weed control at 250 g/ha: read-out: Barnyardgrass damage rating (100=total damage to plant; 0=no damage to plant); for pest or weed control at 62.5 g/ha: 62.5 g ai/ha, 100=total damage to plant, 0=no damage to plant, read-out: Barnyardgrass damage rating; for pest or weed control at 250 g/ha: 250 g ai/ha
Summary of the method: (§1)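 Pots of seeds in standard soil were grown for one day in a glasshouse (24/16 °C day/night, 14 h light, 65% humidity), then sprayed with compound in acetone/water 50:50 with 0.5% Tween 20 at 15.625, 62.5 or 250 g/ha. Damage was scored after 13 days on a 0 (none) to 100 (total) scale.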

corn (Zea mays) [2] = experiment: Test G Pre-Emergence Protocol; details: Zea mays, pre-emergence, 312 h, evaluated after 13 days; for plant injury at 15.625 g/ha: 15.625 g ai/ha; for plant injury at 15.625 g/ha / plant injury at 250 g/ha: read-out: Corn damage rating (100=total damage to plant; 0=no damage to plant); for plant injury at 62.5 g/ha: 62.5 g ai/ha, 100=total damage to plant, 0=no damage to plant, read-out: Corn damage rating; for plant injury at 250 g/ha: 250 g ai/ha
Summary of the method: as §1

[3] = system: giant foxtail (Setaria faberi); experiment: Test G Pre-Emergence Protocol; details: Setaria faberi, pre-emergence, 312 h, evaluated after 13 days; for pest or weed control at 15.625 g/ha: 15.625 g ai/ha; for pest or weed control at 15.625 g/ha / pest or weed control at 250 g/ha: read-out: Foxtail, Giant damage rating (100=total damage to plant; 0=no damage to plant); for pest or weed control at 62.5 g/ha: 62.5 g ai/ha, 100=total damage to plant, 0=no damage to plant, read-out: Foxtail, Giant damage rating; for pest or weed control at 250 g/ha: 250 g ai/ha
Summary of the method: as §1

[4] = system: ivy-leaved morning glory (Ipomoea hederacea); experiment: Test G Pre-Emergence Protocol; details: Ipomoea, pre-emergence, 312 h, evaluated after 13 days; for pest or weed control at 15.625 g/ha: 15.625 g ai/ha; for pest or weed control at 15.625 g/ha / pest or weed control at 250 g/ha: read-out: Morningglory, Ivy-leaved damage rating (100=total damage to plant; 0=no damage to plant); for pest or weed control at 62.5 g/ha: 62.5 g ai/ha, 100=total damage to plant, 0=no damage to plant, read-out: Morningglory, Ivy-leaved damage rating; for pest or weed control at 250 g/ha: 250 g ai/ha
Summary of the method: as §1

[5] = system: redroot pigweed (Amaranthus retroflexus); experiment: Test G Pre-Emergence Protocol; details: Amaranthus retroflexus, pre-emergence, 312 h, evaluated after 13 days; for pest or weed control at 15.625 g/ha: 15.625 g ai/ha; for pest or weed control at 15.625 g/ha / pest or weed control at 250 g/ha: read-out: Pigweed, Redroot damage rating (100=total damage to plant; 0=no damage to plant); for pest or weed control at 62.5 g/ha: 62.5 g ai/ha, 100=total damage to plant, 0=no damage to plant, read-out: Pigweed, Redroot damage rating; for pest or weed control at 250 g/ha: 250 g ai/ha
Summary of the method: as §1

[6] = system: velvetleaf (Abutilon theophrasti); experiment: Test G Pre-Emergence Protocol; details: Abutilon theophrasti, pre-emergence, 312 h, evaluated after 13 days; for pest or weed control at 15.625 g/ha: 15.625 g ai/ha; for pest or weed control at 15.625 g/ha / pest or weed control at 250 g/ha: read-out: Velvetleaf damage rating (100=total damage to plant; 0=no damage to plant); for pest or weed control at 62.5 g/ha: 62.5 g ai/ha, 100=total damage to plant, 0=no damage to plant, read-out: Velvetleaf damage rating; for pest or weed control at 250 g/ha: 250 g ai/ha
Summary of the method: as §1

[7] = system: barnyardgrass (Echinochloa crus-galli); experiment: Test G Post-Emergence Protocol; details: Echinochloa crus-galli, post-emergence, 312 h, read-out: Barnyardgrass damage rating; for pest or weed control at 15.625 g/ha: 15.625 g ai/ha, evaluated after 13 days (100=total damage to plant; 0=no damage to plant); for pest or weed control at 62.5 g/ha: 62.5 g ai/ha; for pest or weed control at 62.5 g/ha / pest or weed control at 250 g/ha: evaluated after 13 days, 100=total damage to plant, 0=no damage to plant; for pest or weed control at 250 g/ha: 250 g ai/ha
Summary of the method: (§2)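 Eight days post-sowing, plants received a spray of test compound (acetone/water 50:50, 0.5% Tween 20) at 15.625, 62.5 or 250 g/ha. Glasshouse regime thereafter: 24/16 °C, 14 h light, 65% humidity. Assessment after 13 days on a 0–100 damage scale.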

corn (Zea mays) [8] = experiment: Test G Post-Emergence Protocol; details: Zea mays, post-emergence, 312 h, read-out: Corn damage rating; for plant injury at 15.625 g/ha: 15.625 g ai/ha, evaluated after 13 days (100=total damage to plant; 0=no damage to plant); for plant injury at 62.5 g/ha: 62.5 g ai/ha; for plant injury at 62.5 g/ha / plant injury at 250 g/ha: evaluated after 13 days, 100=total damage to plant, 0=no damage to plant; for plant injury at 250 g/ha: 250 g ai/ha
Summary of the method: as §2

[9] = system: giant foxtail (Setaria faberi); experiment: Test G Post-Emergence Protocol; details: Setaria faberi, post-emergence, 312 h, read-out: Foxtail, Giant damage rating; for pest or weed control at 15.625 g/ha: 15.625 g ai/ha, evaluated after 13 days (100=total damage to plant; 0=no damage to plant); for pest or weed control at 62.5 g/ha: 62.5 g ai/ha
Summary of the method: as §2

[10] = system: ivy-leaved morning glory (Ipomoea hederacea); experiment: Test G Post-Emergence Protocol; details: Ipomoea, post-emergence, 312 h, read-out: Morningglory, Ivy-leaved damage rating; for pest or weed control at 15.625 g/ha: 15.625 g ai/ha, evaluated after 13 days (100=total damage to plant; 0=no damage to plant); for pest or weed control at 62.5 g/ha: 62.5 g ai/ha; for pest or weed control at 62.5 g/ha / pest or weed control at 250 g/ha: evaluated after 13 days, 100=total damage to plant, 0=no damage to plant; for pest or weed control at 250 g/ha: 250 g ai/ha
Summary of the method: as §2

[11] = system: redroot pigweed (Amaranthus retroflexus); experiment: Test G Post-Emergence Protocol; details: Amaranthus retroflexus, post-emergence, 312 h, read-out: Pigweed, Redroot damage rating; for pest or weed control at 15.625 g/ha: 15.625 g ai/ha, evaluated after 13 days (100=total damage to plant; 0=no damage to plant); for pest or weed control at 62.5 g/ha: 62.5 g ai/ha; for pest or weed control at 62.5 g/ha / pest or weed control at 250 g/ha: evaluated after 13 days, 100=total damage to plant, 0=no damage to plant; for pest or weed control at 250 g/ha: 250 g ai/ha
Summary of the method: as §2

[12] = system: velvetleaf (Abutilon theophrasti); experiment: Test G Post-Emergence Protocol; details: Abutilon theophrasti, post-emergence, 312 h, read-out: Velvetleaf damage rating; for pest or weed control at 15.625 g/ha: 15.625 g ai/ha, evaluated after 13 days (100=total damage to plant; 0=no damage to plant); for pest or weed control at 62.5 g/ha: 62.5 g ai/ha; for pest or weed control at 62.5 g/ha / pest or weed control at 250 g/ha: evaluated after 13 days, 100=total damage to plant, 0=no damage to plant; for pest or weed control at 250 g/ha: 250 g ai/ha
Summary of the method: as §2

[13] = evaluated after 13 days, 100=total damage to plant, 0=no damage to plant

## CN1C[C@@H](c2cccc(Oc3ccc(F)cc3)c2)[C@H](C(=O)Nc2cccc(F)n2)C1=O (racemic) [Compound 1829]
[1]
  pest or weed control at 15.625 g/ha: 60%
  pest or weed control at 62.5 g/ha: 70%
  pest or weed control at 250 g/ha: 90%
Corn (Zea mays) [2]
  plant injury at 15.625 g/ha: 0%
  plant injury at 62.5 g/ha: 10%
  plant injury at 250 g/ha: 60%
[3]
  pest or weed control at 15.625 g/ha: 70%
  pest or weed control at 62.5 g/ha: 80%
  pest or weed control at 250 g/ha: 90%
[4]
  pest or weed control at 15.625 g/ha: 0%
  pest or weed control at 62.5 g/ha: 0%
  pest or weed control at 250 g/ha: 0%
[5]
  pest or weed control at 15.625 g/ha: 0%
  pest or weed control at 62.5 g/ha: 0%
  pest or weed control at 250 g/ha: 30%
[6]
  pest or weed control at 15.625 g/ha: 0%
  pest or weed control at 62.5 g/ha: 0%
  pest or weed control at 250 g/ha: 20%
[7]
  pest or weed control at 15.625 g/ha: 0%
  pest or weed control at 62.5 g/ha: 60%
  pest or weed control at 250 g/ha: 70%
Corn (Zea mays) [8]
  plant injury at 15.625 g/ha: 20%
  plant injury at 62.5 g/ha: 0%
  plant injury at 250 g/ha: 60%
[9]
  pest or weed control at 15.625 g/ha: 70%
[9]; [13]
  pest or weed control at 62.5 g/ha: 80%
[9]; 250 g ai/ha, evaluated after 13 days, 100=total damage to plant, 0=no damage to plant
  pest or weed control at 250 g/ha: 80%
[10]
  pest or weed control at 15.625 g/ha: 20%
  pest or weed control at 62.5 g/ha: 20%
  pest or weed control at 250 g/ha: 30%
[11]
  pest or weed control at 15.625 g/ha: 0%
  pest or weed control at 62.5 g/ha: 20%
  pest or weed control at 250 g/ha: 60%
[12]
  pest or weed control at 15.625 g/ha: 0%
  pest or weed control at 62.5 g/ha: 0%
  pest or weed control at 250 g/ha: 20%

## CN1CC(c2cc(C#N)cc(C(F)(F)F)c2)C(C(=O)Nc2cccc(F)c2F)C1=O (centres unmarked) [Compound 1684]
[1]
  pest or weed control at 15.625 g/ha: 0%
  pest or weed control at 62.5 g/ha: 0%
  pest or weed control at 250 g/ha: 0%
Corn (Zea mays) [2]
  plant injury at 15.625 g/ha: 0%
  plant injury at 62.5 g/ha: 0%
  plant injury at 250 g/ha: 10%
[3]
  pest or weed control at 15.625 g/ha: 0%
  pest or weed control at 62.5 g/ha: 0%
  pest or weed control at 250 g/ha: 0%
[4]
  pest or weed control at 15.625 g/ha: 0%
  pest or weed control at 62.5 g/ha: 0%
  pest or weed control at 250 g/ha: 0%
[5]
  pest or weed control at 15.625 g/ha: 0%
  pest or weed control at 62.5 g/ha: 0%
  pest or weed control at 250 g/ha: 10%
[6]
  pest or weed control at 15.625 g/ha: 0%
  pest or weed control at 62.5 g/ha: 0%
  pest or weed control at 250 g/ha: 0%
[7]
  pest or weed control at 15.625 g/ha: 0%
  pest or weed control at 62.5 g/ha: 0%
  pest or weed control at 250 g/ha: 0%
Corn (Zea mays) [8]
  plant injury at 15.625 g/ha: 0%
  plant injury at 62.5 g/ha: 0%
  plant injury at 250 g/ha: 0%
[9]
  pest or weed control at 15.625 g/ha: 0%
[9]; [13]
  pest or weed control at 62.5 g/ha: 0%
[10]
  pest or weed control at 15.625 g/ha: 0%
  pest or weed control at 62.5 g/ha: 0%
  pest or weed control at 250 g/ha: 0%
[11]
  pest or weed control at 15.625 g/ha: 0%
  pest or weed control at 62.5 g/ha: 0%
  pest or weed control at 250 g/ha: 0%
[12]
  pest or weed control at 15.625 g/ha: 0%
  pest or weed control at 62.5 g/ha: 0%
  pest or weed control at 250 g/ha: 0%
